Results from patent US9623039B2, “Treatment and prevention of pathological conditions using iduna related techniques and compositions” (VALTED, LLC, priority 2010, dated 2017).
Values belong to the compound of their own block, whether it stands above or below them. Where a SMILES comes first, the peptide text is derived from it. The star is where a group is joined. Cbz = O=C(OCc1ccccc1)*; CH2F = FC*

What was measured:
MCF7 cells = experiment: Laser micro-irradiation-induced DNA damage, recruitment of GFP-Iduna; format: cell-based, human; conditions: 405 nm laser microirradiation
Protocol: Live-cell imaging and Laser micro-irradiation-induced DNA damage: For induction of localized DNA damage, MCF 7 cells stably expressing GFP-Iduna or GFP-Iduna-YRAA were plated onto 25 mm glass bottom culture dishes for 48 h. Cells were presensitized with 10 μM 5-bromo-2′-deoxyuridine (BrdU, Sigma) for 24 h. Cells were incubated with 2 μM Hoechst (Invitrogen) for 5 min and mounted on a preheated (37° C.) stage on a Zeiss LSM 710 confocal microscope equipped with 405 nm laser source. A laser microbeam was focused on a small rectangular strip of nucleus through 63× oil objective to induce localized DNA damage. The laser setting was set to 100% power output with a scanning speed of 1 and 6-10 laser iterations. The kinetics were calculated using Zeiss Zen 2010 software. Time point before irradiation represents—1 min and the time point just after irradiation represent 0 min. Each data series was normalized with respect to base line data intensity values.

PARP-1 = target: T1, PARP-1 (Homo sapiens, UniProt P09874); experiment: Chemiluminescent PARP assay (biotinylated PAR onto histone); format: biochemical; conditions: incorporation of biotinylated PAR onto histone proteins
T1 construct: purchased Trevigen
T1 sequence (P09874 whole entry): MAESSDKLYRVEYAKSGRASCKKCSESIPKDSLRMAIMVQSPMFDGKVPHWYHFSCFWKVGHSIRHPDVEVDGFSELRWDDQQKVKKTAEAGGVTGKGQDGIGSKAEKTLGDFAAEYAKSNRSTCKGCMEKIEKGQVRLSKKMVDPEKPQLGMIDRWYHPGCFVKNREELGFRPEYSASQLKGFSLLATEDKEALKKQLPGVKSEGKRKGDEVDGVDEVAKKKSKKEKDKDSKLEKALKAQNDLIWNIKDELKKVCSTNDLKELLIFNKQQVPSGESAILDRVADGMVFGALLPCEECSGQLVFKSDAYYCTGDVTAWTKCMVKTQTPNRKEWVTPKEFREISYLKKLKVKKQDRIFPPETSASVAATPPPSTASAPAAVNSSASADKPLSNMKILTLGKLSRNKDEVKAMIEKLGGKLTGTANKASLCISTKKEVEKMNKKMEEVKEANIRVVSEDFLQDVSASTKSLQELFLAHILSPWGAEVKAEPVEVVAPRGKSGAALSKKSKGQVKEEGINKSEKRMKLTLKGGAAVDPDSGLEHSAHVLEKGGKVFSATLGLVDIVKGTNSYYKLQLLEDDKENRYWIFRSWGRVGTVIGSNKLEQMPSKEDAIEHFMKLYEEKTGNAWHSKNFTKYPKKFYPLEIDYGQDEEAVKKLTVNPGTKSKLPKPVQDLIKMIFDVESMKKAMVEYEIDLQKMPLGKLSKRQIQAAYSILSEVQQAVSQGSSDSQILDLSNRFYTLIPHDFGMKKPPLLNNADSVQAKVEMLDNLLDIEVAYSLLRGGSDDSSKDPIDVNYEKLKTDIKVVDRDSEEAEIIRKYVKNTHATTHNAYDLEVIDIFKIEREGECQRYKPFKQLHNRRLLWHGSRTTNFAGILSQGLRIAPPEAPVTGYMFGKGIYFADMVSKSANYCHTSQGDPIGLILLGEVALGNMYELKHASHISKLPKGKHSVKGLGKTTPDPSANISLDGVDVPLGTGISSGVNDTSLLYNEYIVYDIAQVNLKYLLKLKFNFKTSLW
Protocol: Because PARP-1 activation plays a prominent role in NMDA excitotoxicity we tested whether PARP-1 activity is directly affected by Iduna. PARP-1 activity was assessed by incorporation of biotinylated PAR onto histone proteins.
Chemiluminescent PARP assay for poly(ADP-ribosyl)ation of Histone H1: Activity of PARP-1 was determined by Trevigen Universal chemiluminescent PARP assay kit (Trevigen, Gaithersburg, Md., USA) in the presence of Iduna or the PARP-1 inhibitor 3-aminobenzamide (3-AB). According to manufacturer's instructions, the incorporation of biotinylated NAD+ (Trevigen) into the poly(ADP-ribose) polymer primed at solid phase immobilized histone H1 (Trevigen) was detected by the chemiluminescent assay, either in the presence or absence of recombinant Iduna. Reactions were performed with 34 μM total biotinylated NAD+ for 60 min at 25° C. in triplicates. Chemiluminescence was measured using a fluorescence multi-well plate reader (SOSTmax, Sunnyvale, Calif.) with an excitation at 544 nm excitation/590 nm emission. In the parallel wells, PARP1 activity was measured after the 3-aminobenzamide treatment at the same concentration of biotinylated NAD+ (34 μM).

primary neurons = experiment: H2O2-induced cell death in primary neurons; format: cell-based, mouse
Protocol: FIGS. 44 and 45—Iduna protects against peroxide-induced cell death in primary neurons. Primary neuronal cultures were transduced with lentiviruses expressing GFP, GFP-Iduna or GFP-Iduna-YRAA. 4 days following lentiviral transduction, cultures were treated with H2O2 (100 μM or 500 μM) and cell death assessed 24 h later using PI and Hoechst staining.
Cell Death Assessment: Following exposure of neuronal cultures to the various treatments neuronal survival was quantified and presented as percent of cell death. Percent cell death was determined as the ratio of live-to-dead cells compared with the percent cell death in control wells to account for cell death attributable to mechanical stimulation of the cultures. Quantification of neuronal survival was determined by staining treated cultures with 5 μM Hoechst 33342 and 2 μM propidium iodide (PI) (Invitrogen, Carlsbad, Calif.). Culture plates were placed on a mechanized stage of a Zeiss microscope and photomicrographs were collected by a blinded observer. The numbers of total and dead (PI positive) cells were counted by automated computer assisted software (Axiovision 4.6, Zeiss, Germany). The raw counts are presented in an Excel file for generation of percent cell death and statistical analysis. Glial nuclei fluoresce at a lower intensity than neuronal nuclei and were gated out by the software program. […]

PAR polymer = PAR polymer overlay / dot blot (far western); format: binding; conditions: PAR polymer overlay assay
From the text: PAR binding is specified by a sequence of approximately 20 amino acids containing N-terminal basic amino acids and a C-terminal region containing alternating hydrophobic and basic amino acids (FIG. 24). Iduna contains a predicted PAR polymer binding sequence within amino acids 144-167 of the WWE domain (FIGS. 1 and 24). The PAR-binding domain was defined by comparing to the consensus sequence for PAR-binding and the known PAR binding domain of Histone 3 (FIG. 24). HEK293 cells were transfected with GFP, GFP-Iduna lacking the WWE domain (GFP-IdunaΔWWE), GFP-Iduna lacking the RF domain (GFP-IdunaARF), and full-length GFP-Iduna, followed by immunoprecipitation with a GFP antibody. […] Only GFP-Iduna-ARF and full-length GFP-Iduna can co-immunoprecipiate PAR binding proteins (FIG. 25). The critical amino acids in the PAR binding domain, 156Y and 157R, were mutated to 156A and 157A in full length Iduna (Iduna-YRAA). […] Similar results are obtained with a biotin-tagged PAR polymer followed by detection with an anti-biotin antibody (FIG. 26). […] Histone H3 is a known PAR binding protein and was used as a positive control for the PAR overlay assay. […] An assay based on electrophorectic mobility shift (EMSA) for PAR binding was developed to monitor PAR polymer binding to Iduna. […]

neuronal cultures = experiment: Caspase-dependent cell death (camptothecin, staurosporine) in neuronal cultures; format: cell-based, mouse; conditions: for protection against cell death: 24 h
Protocol: (§1) FIG. 42—Neuronal cultures expressing lenti-viral mediated GFP, GFP-Iduna or GFP-Iduna-YRAA were treated with camptothecin (CPT, 20 μM) and cell death assessed 24 h later using PI and Hoechst staining. […] Data represent the mean±SEM, n=4 of two independent experiments. *p<0.05 by ANOVA with Tukey-Kramer's posthoc test.
as §1, with “43—Neuronal” for “42—Neuronal”, “staurosporine (STS, 500 nM)” for “camptothecin (CPT, 20 μM)”
Cell Death Assessment: Following exposure of neuronal cultures to the various treatments neuronal survival was quantified and presented as percent of cell death. Percent cell death was determined as the ratio of live-to-dead cells compared with the percent cell death in control wells to account for cell death attributable to mechanical stimulation of the cultures. Quantification of neuronal survival was determined by staining treated cultures with 5 μM Hoechst 33342 and 2 μM propidium iodide (PI) (Invitrogen, Carlsbad, Calif.). Culture plates were placed on a mechanized stage of a Zeiss microscope and photomicrographs were collected by a blinded observer. The numbers of total and dead (PI positive) cells were counted by automated computer assisted software (Axiovision 4.6, Zeiss, Germany). The raw counts are presented in an Excel file for generation of percent cell death and statistical analysis. Glial nuclei fluoresce at a lower intensity than neuronal nuclei and were gated out by the software program. At least two separate experiments using four separate wells were performed for all data points.

Compound: CN(C)Cc1ccc(-c2nc3cccc4c3n2CCNC4=O)cc1 [AG14361]
recruitment of GFP-Iduna to laser-induced DNA breaks (MCF7 cells): blocks the translocation of Iduna

PARP-1 activity (PARP-1): inhibits PARP-1 activity
Compound: NC(=O)c1cccc(N)c1 [3-AB, 3-aminobenzamide, reference compound]

Compound: O=C1NCCc2c(OCCCCN3CCCCC3)cccc21 [DPQ]
protection against H2O2 toxicity (primary neurons; 100 μM H2O2): only protected against 100 μM H2O2 toxicity | protection against H2O2 toxicity (primary neurons; 500 μM H2O2): Neither GFP-Iduna nor DPQ protect

Compound: Iduna 144-167: synthesized peptide fragment of the predicted PAR polymer binding sequence, amino acids 144-167 of the WWE domain (LYVADLENMVQYRRNEHGRRRKIK; UniProt Q9NTX7 144-167, looked up, fragment)
PAR polymer binding (PAR polymer): binds to PAR polymer in a manner comparable to full-length Iduna

Compound: COC(=O)C[C@H](NC(=O)[C@H](C)NC(=O)[C@@H](NC(=O)OCc1ccccc1)C(C)C)C(=O)CF [z-VAD fmk] (Cbz-Val-Ala-Asp(OMe)-CH2F)
protection against cell death (neuronal cultures; camptothecin 20 μM): provides protection | apoptotic cell death (neuronal cultures; staurosporine 500 nM or camptothecin 20 μM): inhibited cell death | protection against cell death (neuronal cultures; staurosporine 500 nM): provides protection
